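Interpolation was linear, between the two tested concentrations surrounding the appropriate level; five concentrations were tested over 48 hours in 96-well plates. TGI is the concentration that stops growth completely.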 Where a SMILES comes first, the peptide text is derived from it. The star is where a group is joined. Boc = CC(C)(C)OC(=O)*; Bn = c1ccc(C*)cc1
Tests used:
Test in all cases: NCI tumour cell line growth inhibition, 48 h
SK-MEL-5 melanoma = tested on: SK-MEL-5 melanoma
MALME-3M melanoma = tested on: MALME-3M melanoma
HOP-62 NSCLC = tested on: HOP-62 NSCLC
MDA-N = tested on: MDA-N
RXF 393 renal = tested on: RXF 393 renal
A549 NSCLC = tested on: A549 NSCLC
SR leukemia = tested on: SR leukemia
NCI-H522 lung = tested on: NCI-H522 lung
IGROV1 ovarian = tested on: IGROV1 ovarian
SF-295 CNS = tested on: SF-295 CNS
K-562 leukemia = tested on: K-562 leukemia

Row | SMILES | TGI (SK-MEL-5 melanoma) | TGI (MALME-3M melanoma) | TGI (HOP-62 NSCLC) | TGI (MDA-N) | TGI (RXF 393 renal) | TGI (A549 NSCLC) | TGI (SR leukemia) | TGI (NCI-H522 lung) | TGI (IGROV1 ovarian) | TGI (SF-295 CNS) | TGI (K-562 leukemia)
1 | CN(C)c1ccc(/C=c2/c3ccccc3n3c2c2c([n+]3C)CCCC2)cc1 | 0.217 µM | 0.866 µM | 1.58 µM | 1.27 µM | 0.616 µM | 1.96 µM | 1.06 µM | 0.687 µM | 1.82 µM | 0.653 µM | 2.85 µM
2 | COc1cc(C2c3cc4c(cc3OC(N3CCCCC3)C2C)OCO4)cc(OC)c1O (stereo unspecified) | 19.8 µM | 16.8 µM | 25.9 µM | 5.6 µM | > 100 µM | 27.1 µM | > 44.5 µM | 22.2 µM | 36.4 µM | 13.4 µM | > 100 µM
3 | O=C(Nc1ccccc1)c1cc(S(=O)(=O)NC2=NC(c3ccccc3)c3cc(Cl)ccc3N2)c(SSc2cc(Cl)c(C(=O)Nc3ccccc3)cc2S(=O)(=O)NC2=NC(c3ccccc3)c3cc(Cl)ccc3N2)cc1Cl (stereo unspecified) | > 100 µM | > 100 µM | > 100 µM | > 100 µM | > 100 µM | > 100 µM | > 26.7 µM | > 100 µM | > 100 µM | > 100 µM | > 100 µM
4 | CC1CC(OP(=O)(OCc2ccccc2)OCc2ccccc2)[C@@H](OCc2ccccc2)C(OCc2ccccc2)C1OCc1ccccc1 (stereo partly specified) | > 100 µM | > 100 µM | > 100 µM | > 100 µM | 9.8 µM | > 100 µM | > 100 µM | > 100 µM | > 100 µM | > 100 µM | > 100 µM
5 | COC(=O)C1=C(OC(=O)/C(=C/c2ccc(Cl)cc2)c2ccc(Cl)cc2)C(C(=O)OC)[C@@]2(O)[C@@H](C(=O)OC)[C@H](C)C[C@@H]1[C@@H]2C(=O)OC (stereo partly specified) | > 100 µM | > 100 µM | > 100 µM | > 100 µM | > 100 µM | > 87.7 µM | > 100 µM | > 67.3 µM | > 100 µM | > 100 µM | > 100 µM
6 | COc1cccc(C2c3cc4c(cc3OC(N3CCCCC3)C2C)OCO4)c1O (stereo unspecified) | 16.3 µM | 36.1 µM | 13.7 µM | 7.71 µM | 18.7 µM | > 66.5 µM | 11.8 µM | 8.53 µM | > 100 µM | 24.3 µM | 12.7 µM
7 | CCCC(=O)NC(NC1CCCCC1)(C(=O)OCC)C(F)(F)F (stereo unspecified) | > 100 µM | > 100 µM | > 100 µM | > 100 µM | > 100 µM | > 100 µM | > 100 µM | > 100 µM | > 100 µM | > 100 µM | > 100 µM
8 | COC(=O)c1ccc(/C=C/c2cc(O)ccc2O)cc1 | > 25.5 µM | 5.64 µM | > 69.3 µM | > 46.7 µM | 6.59 µM | > 100 µM | 3.69 µM | 0.356 µM | 9.42 µM | > 100 µM | 4.38 µM
9 | CC(C)(C)OC(=O)NC1CCCCC1NC(=O)C(=O)NC1CCCCC1NC(=O)OC(C)(C)C (stereo unspecified) | > 100 µM | > 100 µM | 80.6 µM | > 100 µM | 38.8 µM | > 100 µM | > 100 µM | > 100 µM | > 100 µM | > 100 µM | > 100 µM
10 | O=C1C2SC34c5c2c2ccccc2n5CCC3CCCN14 (stereo unspecified) | > 100 µM | > 100 µM | > 100 µM | > 100 µM | > 100 µM | > 100 µM | > 100 µM | > 100 µM | > 100 µM | > 100 µM | > 100 µM
11 | Cc1ccc2c(c1)C(=S)N1CSCC1c1nncn1-2 (stereo unspecified) | > 100 µM | > 100 µM | > 100 µM | > 100 µM | > 100 µM | > 100 µM | > 100 µM | > 100 µM | > 100 µM | > 100 µM | > 100 µM
12 | COC(=O)C(CC(C)C)NC(=O)C(C)NC(=O)C(Cc1ccc(OCc2ccccc2)cc1)NC(=O)C(COCc1ccccc1)NC(=O)OC(C)(C)C (stereo unspecified) (Boc-S(Bn)Y(Bn)AL-OMe; configuration not given here) | > 100 µM | > 100 µM | > 100 µM | > 100 µM | > 100 µM | > 100 µM | > 100 µM | > 100 µM | > 100 µM | > 100 µM | > 100 µM
13 | C=CCc1cccc2cc(C(=O)NCc3ccccc3)c(=N)oc12 | 64.4 µM | 40.4 µM | > 100 µM | > 100 µM | > 100 µM | > 100 µM | > 100 µM | 44.2 µM | > 100 µM | – | > 100 µM
14 | Cc1n(Cc2ccccc2)c2c([n+]1C)C(=O)c1ccccc1C2=O | 0.0509 µM | 0.0577 µM | 0.775 µM | 0.32 µM | 2.42 µM | 0.197 µM | > 45.5 µM | 0.135 µM | 0.127 µM | 0.554 µM | 1.66 µM
15 | CCn1c(-c2ccccc2)cs/c1=N\C(P(=O)(O)O)P(=O)(O)O | > 100 µM | > 100 µM | > 100 µM | > 100 µM | > 100 µM | > 100 µM | > 100 µM | > 100 µM | > 100 µM | > 100 µM | > 100 µM
16 | CN1CCc2c([nH]c3ccccc23)C1 | > 100 µM | 86.8 µM | > 100 µM | > 100 µM | > 100 µM | > 100 µM | > 100 µM | > 100 µM | > 100 µM | > 100 µM | > 100 µM
17 | O=c1oc2ccc3ccccc3c2cc1-c1nc2ccccc2s1 | > 100 µM | > 100 µM | > 100 µM | > 100 µM | > 100 µM | > 100 µM | > 21.5 µM | > 100 µM | > 100 µM | > 100 µM | > 77.6 µM
18 | CN=C(n1ccnc1)n1ccnc1 | > 100 µM | > 100 µM | – | > 100 µM | > 100 µM | > 100 µM | > 100 µM | > 100 µM | > 100 µM | – | > 100 µM
19 | Cc1ccc(/C=N/Nc2cc(C)c3cccc(C)c3n2)s1 | 23.9 µM | 33.1 µM | 25.7 µM | 25.1 µM | 32.8 µM | 26.3 µM | > 100 µM | 16.9 µM | 22.2 µM | 21.8 µM | –
20 | COc1cc(OC)cc(Oc2nc3ccccc3nc2C(F)(F)F)c1 | > 100 µM | > 100 µM | > 100 µM | > 100 µM | > 100 µM | > 100 µM | > 100 µM | > 100 µM | > 100 µM | > 100 µM | > 100 µM

Reference: PubChem BioAssay (NCI)
